For orientation: EC50 means the concentration at which the effect is half-maximal.

Where a SMILES comes first, the peptide text is derived from it. Bridges are numbered along the chain shown (N, C = ends). [ ]: non-standard residue; d: D form. Aib = CC(C)(N)C(=O)O

This note sets out measurements from patent publication US9062124B2, “GIP-based mixed agonists for treatment of metabolic disorders and obesity” (priority 2008, dated 2015).

What all share (type): cell-based
Assay [1] deals with T1, GLP-1 receptor (Homo sapiens, UniProt P43220).
T1 construct: expressed in transfected cells; host or cells: HEK293
Nature of the assay: cAMP synthesis functional assay (firefly luciferase reporter in HEK293 cells), GLP-1 receptor. The conditions noted are these: Table 1; for GLP-1 Receptor relative activity: relative to the native hormone of the indicated receptor; for EC50: GLP-1 Receptor EC50, nM.

Assay [2] has as its target T2, glucagon receptor (Homo sapiens, UniProt P47871).
T2 construct: expressed in transfected cells; host or cells: HEK293
As to the kind of experiment: cAMP synthesis functional assay (firefly luciferase reporter in HEK293 cells), glucagon receptor. As to conditions: Table 1; for Glucagon Receptor relative activity: relative to the native hormone of the indicated receptor; for EC50: Glucagon Receptor EC50, nM. On the technique in general: Reporter assays use an easily measured gene product as a stand-in for the process of interest.

Assay [3] deals with glucagon receptor, GLP-1 receptor or GIP receptor. Nature of the assay: Agonist profile across receptors assigned from the cAMP reporter assay data. As to conditions: assigned from the in vitro EC50 data of Tables 1-4.
Assay [4] has as its target T3, GIP receptor (Homo sapiens, UniProt P48546).
T3 construct: expressed in transfected cells; host or cells: HEK293
T3 sequence (P48546 22-466): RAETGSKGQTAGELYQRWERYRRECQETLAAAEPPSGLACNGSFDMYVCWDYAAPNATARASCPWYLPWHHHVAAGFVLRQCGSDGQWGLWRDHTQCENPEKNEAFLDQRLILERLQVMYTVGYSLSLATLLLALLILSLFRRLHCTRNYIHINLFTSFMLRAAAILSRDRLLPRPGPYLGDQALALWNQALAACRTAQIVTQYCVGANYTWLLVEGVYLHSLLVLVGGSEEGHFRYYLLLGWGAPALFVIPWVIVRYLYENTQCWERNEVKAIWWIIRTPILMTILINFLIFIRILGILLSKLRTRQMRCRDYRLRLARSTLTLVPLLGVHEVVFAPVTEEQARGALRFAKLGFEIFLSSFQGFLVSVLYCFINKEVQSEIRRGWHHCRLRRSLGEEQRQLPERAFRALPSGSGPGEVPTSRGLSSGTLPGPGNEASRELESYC
As to the kind of experiment: cAMP synthesis functional assay (firefly luciferase reporter in HEK293 cells), GIP receptor. The conditions noted are these: Table 1; for GIP Receptor relative activity: relative to the native hormone of the indicated receptor; for EC50: GIP Receptor EC50, nM.

T1 sequence (P43220 24-463, species assumed): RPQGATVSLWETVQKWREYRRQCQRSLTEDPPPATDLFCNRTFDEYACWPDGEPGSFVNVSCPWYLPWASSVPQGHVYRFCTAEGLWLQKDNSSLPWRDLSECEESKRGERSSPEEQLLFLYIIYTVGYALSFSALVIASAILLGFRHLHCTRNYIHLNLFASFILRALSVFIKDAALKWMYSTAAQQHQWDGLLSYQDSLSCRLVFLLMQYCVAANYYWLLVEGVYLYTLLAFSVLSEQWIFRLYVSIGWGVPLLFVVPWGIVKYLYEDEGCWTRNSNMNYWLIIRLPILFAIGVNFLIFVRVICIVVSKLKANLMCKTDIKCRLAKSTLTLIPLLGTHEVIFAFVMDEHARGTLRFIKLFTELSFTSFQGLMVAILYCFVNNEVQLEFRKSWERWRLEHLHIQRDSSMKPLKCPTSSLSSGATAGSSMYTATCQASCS
T2 sequence (P47871 26-477): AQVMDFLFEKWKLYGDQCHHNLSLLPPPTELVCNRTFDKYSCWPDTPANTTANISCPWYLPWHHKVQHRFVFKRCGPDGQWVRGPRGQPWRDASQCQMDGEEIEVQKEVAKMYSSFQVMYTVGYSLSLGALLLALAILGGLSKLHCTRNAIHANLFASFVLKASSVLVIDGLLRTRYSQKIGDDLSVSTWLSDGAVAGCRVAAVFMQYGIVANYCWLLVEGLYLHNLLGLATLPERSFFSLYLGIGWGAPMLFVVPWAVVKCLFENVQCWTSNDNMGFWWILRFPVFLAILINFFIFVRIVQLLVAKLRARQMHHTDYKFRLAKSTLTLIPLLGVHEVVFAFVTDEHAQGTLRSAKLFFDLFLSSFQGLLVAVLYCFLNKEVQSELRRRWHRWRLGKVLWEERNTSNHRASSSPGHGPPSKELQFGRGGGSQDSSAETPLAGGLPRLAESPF

Consider `CC[C@H](C)[C@H](NC(=O)[C@H](CO)NC(=O)[C@H](Cc1ccc(O)cc1)NC(=O)[C@H](CC(=O)O)NC(=O)[C@H](CO)NC(=O)[C@@H](NC(=O)[C@H](Cc1ccccc1)NC(=O)[C@@H](NC(=O)CNC(=O)[C@H](CCC(N)=O)NC(=O)C(C)(C)NC(=O)[C@@H](N)Cc1ccc(O)cc1)[C@@H](C)O)[C@@H](C)O)C(=O)N[C@@H](Cc1ccc(O)cc1)C(=O)N[C@@H](CC(C)C)C(=O)N[C@@H](CC(=O)O)C(=O)N[C@H]1CCC(=O)NCCCC[C@@H](C(=O)N[C@@H](CCC(=O)O)C(=O)N[C@@H](Cc2ccccc2)C(=O)N[C@H](C(=O)N[C@@H](CS)C(=O)N[C@@H](Cc2c[nH]c3ccccc23)C(=O)N[C@@H](CC(C)C)C(=O)N[C@@H](CC(C)C)C(=O)N[C@@H](C)C(=O)NCC(N)=O)C(C)C)NC(=O)[C@H](C)NC(=O)[C@H](C)NC(=O)[C@H](CCC(N)=O)NC1=O` [mt-169] (H-Y[Aib]QGTFTSDYSIYLDEQAAKEFVCWLLAG-NH2; lactam 16-20; N-terminus assumed), for which the “GLP-1 Receptor relative activity” value in assay [1] came to 54.39%. In addition, the “Glucagon Receptor relative activity” value in assay [2] stood at 51.26%. Further, the “receptor activity profile (glucagon / GLP-1 / GIP agonism)” value in assay [3] is reported as “exemplary GLP-1/GIP/glucagon triagonist peptides”. Besides, the “GIP Receptor relative activity” value in assay [4] worked out at 14.79%.
For `CC[C@H](C)[C@H](NC(=O)[C@H](CO)NC(=O)[C@H](Cc1ccc(O)cc1)NC(=O)[C@H](CC(=O)O)NC(=O)[C@H](CO)NC(=O)[C@@H](NC(=O)[C@H](Cc1ccccc1)NC(=O)[C@@H](NC(=O)CNC(=O)[C@H](CCC(=O)O)NC(=O)C(C)(C)NC(=O)[C@@H](N)Cc1ccc(O)cc1)[C@@H](C)O)[C@@H](C)O)C(=O)N[C@@H](Cc1ccc(O)cc1)C(=O)N[C@@H](CC(C)C)C(=O)N[C@@H](CC(=O)O)C(=O)N[C@H]1CCC(=O)NCCCC[C@@H](C(=O)N[C@@H](CCC(=O)O)C(=O)N[C@@H](Cc2ccccc2)C(=O)N[C@H](C(=O)N[C@@H](CC(N)=O)C(=O)N[C@@H](Cc2c[nH]c3ccccc23)C(=O)N[C@@H](CC(C)C)C(=O)N[C@@H](CC(C)C)C(=O)N[C@@H](C)C(=O)NCC(=O)NCC(=O)N2CCC[C@H]2C(=O)N[C@@H](CO)C(=O)N[C@@H](CO)C(=O)NCC(=O)N[C@@H](C)C(=O)N2CCC[C@H]2C(=O)N2CCC[C@H]2C(=O)N2CCC[C@H]2C(=O)N[C@@H](CO)C(=O)N[C@@H](CS)C(N)=O)C(C)C)NC(=O)[C@H](C)NC(=O)[C@H](C)NC(=O)[C@H](CCC(N)=O)NC1=O` [mt-174] (H-Y[Aib]EGTFTSDYSIYLDEQAAKEFVNWLLAGGPSSGAPPPSC-NH2; lactam 16-20; N-terminus assumed), the “GLP-1 Receptor relative activity” value in assay [1] is listed as 117.65%. In addition, the “Glucagon Receptor relative activity” value in assay [2] is given as 0.06%. Further, in assay [3], the “receptor activity profile (glucagon / GLP-1 / GIP agonism)” value is reported as “exemplary GLP-1/GIP co-agonist peptides”. In addition, the “GIP Receptor relative activity” value in assay [4] is reported as 95.65%.
On to `CC[C@H](C)[C@H](NC(=O)[C@H](CO)NC(=O)[C@H](Cc1ccc(O)cc1)NC(=O)[C@H](CC(=O)O)NC(=O)[C@H](CO)NC(=O)[C@@H](NC(=O)[C@H](Cc1ccccc1)NC(=O)[C@@H](NC(=O)CNC(=O)[C@H](CCC(N)=O)NC(=O)C(C)(C)NC(=O)[C@@H](N)Cc1ccc(O)cc1)[C@@H](C)O)[C@@H](C)CC)C(=O)N[C@@H](Cc1ccc(O)cc1)C(=O)N[C@@H](CC(C)C)C(=O)N[C@@H](CC(=O)O)C(=O)N[C@H]1CCC(=O)NCCCC[C@@H](C(=O)N[C@@H](CCC(=O)O)C(=O)N[C@@H](Cc2ccccc2)C(=O)N[C@H](C(=O)N[C@@H](CC(N)=O)C(=O)N[C@@H](Cc2c[nH]c3ccccc23)C(=O)N[C@@H](CC(C)C)C(=O)N[C@@H](CC(C)C)C(=O)N[C@@H](C)C(=O)NCC(=O)NCC(=O)N2CCC[C@H]2C(=O)N[C@@H](CO)C(=O)N[C@@H](CO)C(=O)NCC(=O)N[C@@H](C)C(=O)N2CCC[C@H]2C(=O)N2CCC[C@H]2C(=O)N2CCC[C@H]2C(=O)N[C@@H](CO)C(=O)N[C@@H](CS)C(N)=O)C(C)C)NC(=O)[C@H](C)NC(=O)[C@H](C)NC(=O)[C@H](CCC(N)=O)NC1=O` [mt-176], for which the “GLP-1 Receptor relative activity” value in assay [1] worked out at 0.23%. Further, the “Glucagon Receptor relative activity” value in assay [2] is reported as 26.24%. Also, the “receptor activity profile (glucagon / GLP-1 / GIP agonism)” value in assay [3] was “exemplary GIP/glucagon co-agonist peptides”. The “GIP Receptor relative activity” value in assay [4] worked out at 40.00%.
On to `CC[C@H](C)[C@H](NC(=O)[C@H](CO)NC(=O)[C@H](Cc1ccc(O)cc1)NC(=O)[C@H](CC(=O)O)NC(=O)[C@H](CO)NC(=O)[C@@H](NC(=O)[C@H](Cc1ccccc1)NC(=O)[C@@H](NC(=O)CNC(=O)[C@H](CCC(N)=O)NC(=O)C(C)(C)NC(=O)[C@@H](N)Cc1ccc(O)cc1)[C@@H](C)O)[C@@H](C)CC)C(=O)N[C@@H](Cc1ccc(O)cc1)C(=O)N[C@@H](CC(C)C)C(=O)N[C@@H](CC(=O)O)C(=O)N[C@H]1CCC(=O)NCCCC[C@@H](C(=O)N[C@@H](CCC(=O)O)C(=O)N[C@@H](Cc2ccccc2)C(=O)N[C@H](C(=O)N[C@@H](CS)C(=O)N[C@@H](Cc2c[nH]c3ccccc23)C(=O)N[C@@H](CC(C)C)C(=O)N[C@@H](CC(C)C)C(=O)N[C@@H](C)C(=O)NCC(N)=O)C(C)C)NC(=O)[C@H](C)NC(=O)[C@H](C)NC(=O)[C@H](CCC(N)=O)NC1=O` [mt-177] (H-Y[Aib]QGTFISDYSIYLDEQAAKEFVCWLLAG-NH2; lactam 16-20; N-terminus assumed), for which, in assay [1], the EC50 is 21 nM and the “GLP-1 Receptor relative activity” value amounted to 0.10%. In assay [2], the EC50 was 0.095 nM and the “Glucagon Receptor relative activity” value amounted to 38.95%. Also, the “receptor activity profile (glucagon / GLP-1 / GIP agonism)” value in assay [3] is “exemplary GIP/glucagon co-agonist peptides”. Further, in assay [4], the EC50 worked out at 0.114 nM and the “GIP Receptor relative activity” value came out at 19.30%.
For the compound `CC[C@H](C)[C@H](NC(=O)[C@H](CO)NC(=O)[C@H](Cc1ccc(O)cc1)NC(=O)[C@H](CC(=O)O)NC(=O)[C@H](CO)NC(=O)[C@@H](NC(=O)[C@H](Cc1ccccc1)NC(=O)[C@@H](NC(=O)CNC(=O)[C@H](CCC(N)=O)NC(=O)C(C)(C)NC(=O)[C@@H](N)Cc1ccc(O)cc1)[C@@H](C)O)[C@@H](C)O)C(=O)N[C@@H](Cc1ccc(O)cc1)C(=O)N[C@@H](CC(C)C)C(=O)N[C@@H](CC(=O)O)C(=O)N[C@@H](CCC(=O)O)C(=O)N[C@@H](CCC(=O)O)C(=O)N[C@@H](C)C(=O)N[C@H](C(=O)N[C@@H](CCCNC(=N)N)C(=O)N[C@@H](CC(C)C)C(=O)N[C@@H](Cc1ccccc1)C(=O)N[C@H](C(=O)N[C@@H](CC(N)=O)C(=O)N[C@@H](Cc1c[nH]c2ccccc12)C(=O)N[C@@H](CC(C)C)C(=O)N[C@@H](CC(C)C)C(=O)N[C@@H](C)C(=O)NCC(=O)NCC(=O)N1CCC[C@H]1C(=O)N[C@@H](CO)C(=O)N[C@@H](CO)C(=O)NCC(=O)N[C@@H](C)C(=O)N1CCC[C@H]1C(=O)N1CCC[C@H]1C(=O)N1CCC[C@H]1C(=O)N[C@@H](CO)C(N)=O)C(C)C)C(C)C` [mt-201] (H-Y[Aib]QGTFTSDYSIYLDEEAVRLFVNWLLAGGPSSGAPPPS-NH2; N-terminus assumed), the “GLP-1 Receptor relative activity” value in assay [1] is reported as 191.67%. The “Glucagon Receptor relative activity” value in assay [2] is 0.24%. For the same compound, the “receptor activity profile (glucagon / GLP-1 / GIP agonism)” value in assay [3] was “exemplary GLP-1/GIP co-agonist peptides”. The “GIP Receptor relative activity” value in assay [4] came out at 44.44%.
Consider `CC[C@H](C)[C@H](NC(=O)[C@H](CO)NC(=O)[C@H](Cc1ccc(O)cc1)NC(=O)[C@H](CC(=O)O)NC(=O)[C@H](CO)NC(=O)[C@@H](NC(=O)[C@H](Cc1ccccc1)NC(=O)[C@@H](NC(=O)CNC(=O)[C@H](CCC(=O)O)NC(=O)C(C)(C)NC(=O)[C@@H](N)Cc1ccc(O)cc1)[C@@H](C)O)[C@@H](C)O)C(=O)N[C@@H](Cc1ccc(O)cc1)C(=O)N[C@@H](CC(C)C)C(=O)N[C@@H](CC(=O)O)C(=O)N[C@H]1CCC(=O)NCCCC[C@@H](C(=O)N[C@@H](CCC(=O)O)C(=O)N[C@@H](Cc2ccccc2)C(=O)N[C@H](C(=O)N[C@@H](CC(N)=O)C(=O)N[C@@H](Cc2c[nH]c3ccccc23)C(=O)N[C@@H](CC(C)C)C(=O)N[C@@H](CC(C)C)C(=O)N[C@@H](C)C(=O)NCC(=O)N[C@@H](CCCNC(=N)N)C(=O)N2CCC[C@H]2C(=O)N[C@@H](CO)C(=O)N[C@@H](CO)C(=O)NCC(=O)N[C@@H](C)C(=O)N2CCC[C@H]2C(=O)N2CCC[C@H]2C(=O)N2CCC[C@H]2C(=O)N[C@@H](CO)C(=O)N[C@@H](CS)C(N)=O)C(C)C)NC(=O)[C@H](C)NC(=O)[C@H](C)NC(=O)[C@H](CCC(N)=O)NC1=O` [mt-204] (H-Y[Aib]EGTFTSDYSIYLDEQAAKEFVNWLLAGRPSSGAPPPSC-NH2; lactam 16-20; N-terminus assumed), for which, in assay [1], a half-maximal effect (EC50) was put at 0.018 nM and the “GLP-1 Receptor relative activity” value was found to be 161.11%. In assay [2], a half-maximal response (EC50) required 108 nM and the “Glucagon Receptor relative activity” value is listed as 0.06%. In assay [3], the “receptor activity profile (glucagon / GLP-1 / GIP agonism)” value is “exemplary GLP-1/GIP co-agonist peptides”. Further, in assay [4], the EC50 stood at 0.147 nM and the “GIP Receptor relative activity” value amounted to 19.73%.
